# Where two headings read alike, the source gives them in different places.
# Experiments:
# [1] = test system: Stage IIIb/IV NSCLC; conditions: for On-Study Death / Primary Cause of On-Study Death: Adverse Event / Primary Cause of On-Study Death: Disease Progression / Primary Reason for Discontinuing Study Treatment: Death / Primary Reason for Discontinuing Study Treatment: Progressive Disease (Radiographic Progression): Enrolled/Randomized set; for objective response (CR or PR) / disease control rate: HRG high
# Experimental: (§1) In both portions of the study, subjects received 150 mg of erlotinib orally once daily. […] Tumors were to be assessed every 6 weeks (±3 days) up to the first 24 weeks of the study, then every 12 weeks (+7 days) independent of treatment cycle.
# All efficacy analyses were performed on the full analysis set, which includes all subjects in the randomized analysis set who received at least one dose of randomized study medication. The primary efficacy endpoint was PFS. PFS is defined as the time from the date of randomization to the earlier of the dates of the first objective documentation of radiographic disease progression or death due to any cause. A subject who was alive with no Objective documentation of (radiographic) disease progression by the data cut-off date was to be censored at the date of the last evaluable tumor assessment. The key secondary efficacy endpoint, overall survival, was defined as the time from the date of randomization to death due to any cause and was analyzed in the same manner as the primary efficacy endpoint PFS.
# Kaplan-Meier curves were generated for PFS and used to calculate medians and 95% CIs for each treatment group. […] Cox's proportional hazards model.
# The stratification factors included histology (Adenocarcinoma vs Non-Adenocarcinoma) and best response to prior therapy (CR/PR/SD vs PD).
# Unless otherwise indicated, log-rank p-values and HRs for PFS and OS were based on the primary analysis adjusted for the stratification factors at randomization as described above.
# [2] = test system: Stage IIIb/IV NSCLC
# Experimental: as §1
# Subjects were also administered 150 mg/day erlotinib during the phase 2 trial.
# [3] = Full Analysis Set, Kaplan-Meier, placebo + erlotinib
# [4] = Full Analysis Set, placebo + erlotinib
# [5] = HRG high (dCt<3.9), placebo + erlotinib
# [6] = HRG high and EGFR wild type, placebo + erlotinib
# [7] = 18 mg/kg patritumab + erlotinib
# [8] = Full Analysis Set, 9 mg/kg patritumab + erlotinib
# [9] = Full Analysis Set, 18 mg/kg patritumab + erlotinib
# [10] = Full Analysis Set, Kaplan-Meier, 9 mg/kg patritumab + erlotinib
# [11] = Full Analysis Set, Kaplan-Meier, 18 mg/kg patritumab + erlotinib
# [12] = HRG high (dCt<3.9), 9 mg/kg patritumab + erlotinib
# [13] = HRG high (dCt<3.9), 18 mg/kg patritumab + erlotinib
# [14] = HRG high (dCt<3.9), patritumab doses combined + erlotinib
# [15] = HRG high and EGFR wild type, 9 mg/kg patritumab + erlotinib
# [16] = HRG high and EGFR wild type, 18 mg/kg patritumab + erlotinib
# [17] = HRG high and EGFR wild type, patritumab doses combined + erlotinib
# [18] = HRG low, 9 mg/kg patritumab + erlotinib
# [19] = HRG low, 18 mg/kg patritumab + erlotinib
# [20] = HRG low, patritumab doses combined + erlotinib
substance,measurement,setting,value
"erlotinib [Placebo + erlotinib, reference compound]",On-Study Death,[1]; placebo + erlotinib,13 (18.3%) subjects (%)
same,Primary Cause of On-Study Death: Adverse Event,[1]; placebo + erlotinib,5 (7.0%) subjects (%)
same,Primary Cause of On-Study Death: Disease Progression,[1]; placebo + erlotinib,8 (11.3%) subjects (%)
same,Primary Reason for Discontinuing Study Treatment: Death,[1]; placebo + erlotinib,4 (5.6%) subjects (%)
same,Primary Reason for Discontinuing Study Treatment: Progressive Disease (Radiographic Progression),[1]; placebo + erlotinib,50 (70.4%) subjects (%)
same,"Overall Survival, time to event, Median",[1]; [3],7.2 months
same,"Progression-Free Survival, time to event, Median",[1]; [3],1.6 months
same,"Subjects (%) with events, OS",[1]; [4],48 (67.6%) subjects (%)
same,"Subjects (%) with events, PFS",[1]; [4],59 (83.1%) subjects (%)
same,number of subjects with the response being CP/PR,[1]; [4],4 (5.6%) subjects (%)
same,OS Rate at 1 Year (%),[1]; [5],32.4%
same,OS Rate at 6 Months (%),[1]; [5],49.4%
same,OS Rate at 9 Months (%),[1]; [5],49.4%
same,PFS Rate at 8 Weeks (%),[1]; [5],31.3%
same,PFS Rate at 14 Weeks (%),[1]; [5],18.8%
same,PFS Rate at 26 Weeks (%),[1]; [5],0.0%
same,"Progression-Free Survival, time to event, Median",[1]; [5],1.4 months
same,"Subjects (%) with events, OS",[1]; [5],11 (61.1%) subjects (%)
same,"Subjects (%) with events, PFS",[1]; [5],16 (88.9%) subjects (%)
same,"Overall Survival, time to event, Median","[1]; HRG high (dCt<3.9), preliminary, placebo + erlotinib",5.0 months
same,"Progression-Free Survival, time to event, Median",[1]; [6],1.4 months
same,"Subjects (%) with events, PFS",[1]; [6],8 ( 88.9%) subjects (%)
same,objective response (CR or PR),[1]; placebo + erlotinib,1 (5.6%) subjects (%)
same,disease control rate,[1]; placebo plus erlotinib,22.2%
same,"Overall Survival, time to event, Median","[1]; HRG low, placebo + erlotinib",8.0 months
same,"Progression-Free Survival, time to event, Median","[1]; HRG low, placebo + erlotinib",1.4 months
same,"Subjects (%) with events, OS","[1]; HRG low, placebo + erlotinib",11 (68.8%) subjects (%)
same,"Subjects (%) with events, PFS","[1]; HRG low, placebo + erlotinib",13 ( 81.3%) subjects (%)
"patritumab + erlotinib: combination of 150 mg erlotinib daily and anti-HER3 antibody patritumab IV every 3 weeks (18 mg/kg, or 18 mg/kg loading with 9 mg/kg maintenance)",response,"[2]; Phase 1b, 7 subjects",No response was recorded
same,grade of reported AEs,[2]; in vivo,Most reported AEs were grade 1 or 2
same,patritumab-related AE: decreased appetite,[2]; in vivo,2 subjects
same,serious AEs,[2]; in vivo,Three subjects had four serious AEs
same,HR (pooled dose vs placebo) for PFS in the HRG high group,[1]; Cut-off for delta Ct 2.7 (first quartile),0.180
same,HR (pooled dose vs placebo) for PFS in the HRG high group,[1]; Cut-off for delta Ct 3.0,0.177
same,HR (pooled dose vs placebo) for PFS in the HRG high group,[1]; Cut-off for delta Ct 3.5,0.283
same,HR (pooled dose vs placebo) for PFS in the HRG high group,[1]; Cut-off for delta Ct 3.9 (median),0.324
same,HR (pooled dose vs placebo) for PFS in the HRG high group,[1]; Cut-off for delta Ct 4.5,0.490
same,HR (pooled dose vs placebo) for PFS in the HRG high group,[1]; Cut-off for delta Ct 5.0 (third quartile),0.561
same,On-Study Death,[1]; 9 mg/kg patritumab + erlotinib,9 (12.5%) subjects (%)
same,Primary Cause of On-Study Death: Adverse Event,[1]; 9 mg/kg patritumab + erlotinib,4 (5.6%) subjects (%)
same,Primary Cause of On-Study Death: Disease Progression,[1]; 9 mg/kg patritumab + erlotinib,4 (5.6%) subjects (%)
same,Primary Reason for Discontinuing Study Treatment: Death,[1]; 9 mg/kg patritumab + erlotinib,2 (2.8%) subjects (%)
same,Primary Reason for Discontinuing Study Treatment: Progressive Disease (Radiographic Progression),[1]; 9 mg/kg patritumab + erlotinib,45 (62.5%) subjects (%)
same,On-Study Death,[1]; [7],20 (27.8%) subjects (%)
same,Primary Cause of On-Study Death: Adverse Event,[1]; [7],11 (15.3%) subjects (%)
same,Primary Cause of On-Study Death: Disease Progression,[1]; [7],8 (11.1%) subjects (%)
same,Primary Reason for Discontinuing Study Treatment: Death,[1]; [7],11 (15.3%) subjects (%)
same,Primary Reason for Discontinuing Study Treatment: Progressive Disease (Radiographic Progression),[1]; [7],42 (58.3%) subjects (%)
same,"Subjects (%) with events, OS",[1]; [8],46 (64.8%) subjects (%)
same,"Subjects (%) with events, PFS",[1]; [8],52 (73.2%) subjects (%)
same,"Subjects (%) with events, OS",[1]; [9],54 (77.1%) subjects (%)
same,"Subjects (%) with events, PFS",[1]; [9],58 (82.9%) subjects (%)
same,"Overall Survival, time to event, Median",[1]; [10],6.3 months
same,"Progression-Free Survival, time to event, Median",[1]; [10],2.5 months
same,"Overall Survival, time to event, Median",[1]; [11],5.3 months
same,"Progression-Free Survival, time to event, Median",[1]; [11],1.4 months
same,number of subjects with the response being CP/PR,"[1]; Full Analysis Set, high-dose patritumab + erlotinib",5 (7.1%) subjects (%)
same,number of subjects with the response being CP/PR,"[1]; Full Analysis Set, low-dose patritumab + erlotinib",9 (12.9%) subjects (%)
same,OS Rate at 1 Year (%),[1]; [12],49.2%
same,OS Rate at 6 Months (%),[1]; [12],68.8%
same,OS Rate at 9 Months (%),[1]; [12],56.3%
same,PFS Rate at 8 Weeks (%),[1]; [12],67.7%
same,PFS Rate at 14 Weeks (%),[1]; [12],33.9%
same,PFS Rate at 26 Weeks (%),[1]; [12],20.3%
same,"Progression-Free Survival, time to event, Median",[1]; [12],3.0 months
same,"Subjects (%) with events, OS",[1]; [12],9 (56.3%) subjects (%)
same,"Subjects (%) with events, PFS",[1]; [12],12 (75.0%) subjects (%)
same,OS Rate at 1 Year (%),[1]; [13],22.2%
same,OS Rate at 6 Months (%),[1]; [13],50.7%
same,OS Rate at 9 Months (%),[1]; [13],44.3%
same,PFS Rate at 8 Weeks (%),[1]; [13],56.3%
same,PFS Rate at 14 Weeks (%),[1]; [13],50.0%
same,PFS Rate at 26 Weeks (%),[1]; [13],15.6%
same,"Progression-Free Survival, time to event, Median",[1]; [13],3.4 months
same,"Subjects (%) with events, OS",[1]; [13],12 (70.6%) subjects (%)
same,"Subjects (%) with events, PFS",[1]; [13],13 (76.5%) subjects (%)
same,OS Rate at 1 Year (%),[1]; [14],35.8%
same,OS Rate at 6 Months (%),[1]; [14],59.6%
same,OS Rate at 9 Months (%),[1]; [14],50.2%
same,PFS Rate at 8 Weeks (%),[1]; [14],62.1%
same,PFS Rate at 14 Weeks (%),[1]; [14],42.5%
same,PFS Rate at 26 Weeks (%),[1]; [14],18.4%
same,"Progression-Free Survival, time to event, Median",[1]; [14],3.0 months
same,"Subjects (%) with events, OS",[1]; [14],21 (63.6%) subjects (%)
same,"Subjects (%) with events, PFS",[1]; [14],25 (75.8%) subjects (%)
same,"Overall Survival, time to event, Median","[1]; HRG high (dCt<3.9), preliminary, 9 mg/kg patritumab + erlotinib",10.6 months
same,"Overall Survival, time to event, Median","[1]; HRG high (dCt<3.9), preliminary, 18 mg/kg patritumab + erlotinib",6.1 months
same,"Overall Survival, time to event, Median","[1]; HRG high (dCt<3.9), preliminary, patritumab doses combined + erlotinib",9.7 months
same,"Progression-Free Survival, time to event, Median",[1]; [15],2.8 months
same,"Subjects (%) with events, PFS",[1]; [15],6 ( 85.7%) subjects (%)
same,"Progression-Free Survival, time to event, Median",[1]; [16],2.8 months
same,"Subjects (%) with events, PFS",[1]; [16],5 (100.0%) subjects (%)
same,"Progression-Free Survival, time to event, Median",[1]; [17],2.8 months
same,"Subjects (%) with events, PFS",[1]; [17],11 (91.7%) subjects (%)
same,disease control rate,[1]; 9 mg/kg patritumab plus erlotinib,62.5%
same,disease control rate,[1]; 18 mg/kg patritumab plus erlotinib,52.9%
same,objective response (CR or PR),[1]; high-dose patritumab + erlotinib,No subject
same,objective response (CR or PR),[1]; low-dose patritumab + erlotinib,4 (25.0%) subjects (%)
same,"Overall Survival, time to event, Median",[1]; [18],6.3 months
same,"Progression-Free Survival, time to event, Median",[1]; [18],2.1 months
same,"Subjects (%) with events, OS",[1]; [18],10 ( 66.7%) subjects (%)
same,"Subjects (%) with events, PFS",[1]; [18],12 ( 80.0%) subjects (%)
same,"Overall Survival, time to event, Median",[1]; [19],9.6 months
same,"Progression-Free Survival, time to event, Median",[1]; [19],1.4 months
same,"Subjects (%) with events, OS",[1]; [19],12 ( 63.2%) subjects (%)
same,"Subjects (%) with events, PFS",[1]; [19],13 ( 68.4%) subjects (%)
same,"Overall Survival, time to event, Median",[1]; [20],9.3 months
same,"Progression-Free Survival, time to event, Median",[1]; [20],1.9 months
same,"Subjects (%) with events, OS",[1]; [20],22 ( 64.7%) subjects (%)
same,"Subjects (%) with events, PFS",[1]; [20],25 ( 73.5%) subjects (%)
same,improvement in PFS or OS as compared to erlotinib plus placebo,[1]; full analysis set,no significant improvement in PFS or OS
same,treatment difference in PFS and OS,[1]; subjects with tumors expressing low levels of HRG (dCt>3.9),no clear treatment difference in PFS and OS

# From patent US12497666B2, “Nucleic acid biomarker and use thereof” (Daiichi Sankyo Co., Ltd., priority 2013, dated 2025)
